From patent US10266513B2 (Pfizer Inc., priority 2012, dated 2019)

Each molecule was assayed against human full-length BTK Kinase (Homo sapiens (Human), UniProt Q06187) (assay: Human BTK LanthaScreen Assay (TR-FRET)). Settings: 50 μM ATP, FAM-Srctide peptide substrate, read-out: BTK Inhibition IC50.
Type: biochemical
Excerpt: Human BTK LanthaScreen Assay

human full-length BTK Kinase, sequence (Q06187 whole entry): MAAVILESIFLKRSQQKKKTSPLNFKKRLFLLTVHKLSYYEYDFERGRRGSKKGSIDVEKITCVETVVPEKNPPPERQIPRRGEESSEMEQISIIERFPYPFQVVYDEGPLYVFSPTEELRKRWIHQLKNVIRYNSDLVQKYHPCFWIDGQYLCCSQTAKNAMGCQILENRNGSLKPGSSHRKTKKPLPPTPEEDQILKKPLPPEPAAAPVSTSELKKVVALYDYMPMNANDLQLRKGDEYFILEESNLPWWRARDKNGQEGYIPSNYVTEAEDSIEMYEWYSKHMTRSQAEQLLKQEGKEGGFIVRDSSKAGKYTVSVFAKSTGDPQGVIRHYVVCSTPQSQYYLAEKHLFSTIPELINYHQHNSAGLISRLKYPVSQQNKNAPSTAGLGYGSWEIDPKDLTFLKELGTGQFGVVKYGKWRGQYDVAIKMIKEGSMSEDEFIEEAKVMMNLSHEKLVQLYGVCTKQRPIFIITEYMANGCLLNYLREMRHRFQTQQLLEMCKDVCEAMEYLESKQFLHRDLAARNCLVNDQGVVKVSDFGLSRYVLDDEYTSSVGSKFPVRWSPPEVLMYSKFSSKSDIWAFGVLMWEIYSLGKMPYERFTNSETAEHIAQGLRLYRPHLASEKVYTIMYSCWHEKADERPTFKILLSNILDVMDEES

With `N#CN1CCCC(n2nc(-c3ccc(Oc4cc(F)ccc4Cl)cc3)c(C(N)=O)c2N)C1` (centres unmarked) [Example 45, 5-amino-3-[4-(2-chloro-5-fluoro-phenoxy)phenyl]-1-(1-cyanopiperidin-3-yl)-1H-pyrazole-4-carboxamide] as the molecule, how does the IC50 read?
Its IC50 is 0.81 nM.

`N#CN1CCCC(n2nc(-c3ccc(Oc4ccc(F)c(OC(F)(F)F)c4)cc3)c(C(N)=O)c2N)C1` (centres unmarked) [Example 46, 5-amino-1-(1-cyanopiperidin-3-yl)-3-{4-[4-fluoro-3-(trifluoromethoxy)-phenoxy]phenyl}-1H-pyrazole-4-carboxamide] was tested. Which IC50 did it give?
Its IC50 is 6.4 nM.

How did the IC50 turn out when `COc1cc(F)ccc1Oc1ccc(-c2nn(C3CCCN(C#N)C3)c(N)c2C(N)=O)cc1` (centres unmarked) [Example 47, 5-amino-1-(1-cyanopiperidin-3-yl)-3-{4-[4-fluoro-2-methoxyphenoxy]phenyl}-1H-pyrazole-4-carboxamide] was run?
Its IC50 is 1.6 nM.

Which IC50 does the source give for `COc1cccc(Oc2ccc(-c3nn(C4CCCN(C#N)C4)c(N)c3C(N)=O)cc2)c1` (centres unmarked) [Example 48, 5-amino-1-(1-cyanopiperidin-3-yl)-3-[4-(3-methoxyphenoxy)phenyl]-1H-pyrazole-4-carboxamide] here?
The IC50 was 0.44 nM.

For `N#CN1CCCC(n2nc(-c3ccc(Oc4cc(Cl)ccc4F)cc3)c(C(N)=O)c2N)C1` (centres unmarked) [Example 49, 5-amino-3-[4-(5-chloro-2-fluorophenoxy)phenyl]-1-(1-cyanopiperidin-3-yl)-1H-pyrazole-4-carboxamide], which IC50 is on record?
Its IC50 is 2.2 nM.

`N#CN1CCCC(n2nc(-c3ccc(Oc4ccc(Cl)cc4Cl)cc3)c(C(N)=O)c2N)C1` (centres unmarked) [Example 50, 5-amino-1-(1-cyanopiperidin-3-yl)-3-[4-(2,4-dichlorophenoxy)phenyl]-1H-pyrazole-4-carboxamide] was tested. Which IC50 did it give?
The IC50 was 1.8 nM.

`N#CN1CCCC(n2nc(-c3ccc(Oc4cc(F)cc(Cl)c4)cc3)c(C(N)=O)c2N)C1` (centres unmarked) [Example 51, 5-amino-3-[4-(3-chloro-5-fluoro-phenoxy)phenyl]-1-(1-cyanopiperidin-3-yl)-1H-pyrazole-4-carboxamide] was tested. Which IC50 did it give?
Its IC50 is 1.9 nM.

Which IC50 does the source give for `N#CN1CCCC(n2nc(-c3ccc(Oc4ccccc4C(F)(F)F)cc3)c(C(N)=O)c2N)C1` (centres unmarked) [Example 52, 5-amino-1-(1-cyanopiperidin-3-yl)-3-{4-[2-(trifluoromethyl)phenoxy]-phenyl}-1H-pyrazole-4-carboxamide] here?
Its IC50 is 2.9 nM.

`N#CN1CCCC(n2nc(-c3ccc(Oc4cccc(Cl)c4)cc3)c(C(N)=O)c2N)C1` (centres unmarked) [Example 53, 5-amino-3-[4-(3-chlorophenoxy)-phenyl]-1-(1-cyanopiperidin-3-yl)-1H-pyrazole-4-carboxamide] was tested. Which IC50 did it give?
The IC50 was 1.7 nM.

How did the IC50 turn out when `Cc1c(F)cccc1Oc1ccc(-c2nn(C3CCCN(C#N)C3)c(N)c2C(N)=O)cc1` (centres unmarked) [Example 54, 5-amino-1-(1-cyanopiperidin-3-yl)-3-[4-(3-fluoro-2-methylphenoxy)phenyl]-1H-pyrazole-4-carboxamide] was run?
The IC50 was 1.2 nM.

How did the IC50 turn out when `N#CN1CCCC(n2nc(-c3ccc(Oc4cc(Cl)ccc4Cl)cc3)c(C(N)=O)c2N)C1` (centres unmarked) [Example 55, 5-amino-1-(1-cyanopiperidin-3-yl)-3-[4-(2,5-dichlorophenoxy)phenyl]-1H-pyrazole-4-carboxamide] was run?
Its IC50 is 2.2 nM.

Which IC50 does the source give for `N#CN1CCCC(n2nc(-c3ccc(Oc4ccccc4Cl)cc3)c(C(N)=O)c2N)C1` (centres unmarked) [Example 56, 5-amino-3-[4-(2-chlorophenoxy)-phenyl]-1-(1-cyanopiperidin-3-yl)-1H-pyrazole-4-carboxamide] here?
Its IC50 is 1.3 nM.

For `N#CN1CCCC(n2nc(-c3ccc(Oc4cccc(Cl)c4F)cc3)c(C(N)=O)c2N)C1` (centres unmarked) [Example 57, 5-amino-3-[4-(3-chloro-2-fluoro-phenoxy)phenyl]-1-(1-cyanopiperidin-3-yl)-1H-pyrazole-4-carboxamide], which IC50 is on record?
Its IC50 is 3.1 nM.

How did the IC50 turn out when `N#CN1CCCC(n2nc(-c3ccc(Oc4ccc(F)c(Cl)c4)cc3)c(C(N)=O)c2N)C1` (centres unmarked) [Example 58, 5-amino-3-[4-(3-chloro-4-fluoro-phenoxy)phenyl]-1-(1-cyanopiperidin-3-yl)-1H-pyrazole-4-carboxamide] was run?
Its IC50 is 1.8 nM.
